Source: US20120208782A1, “Modulation of Growth of Bifidobacteria Using a Combination of Oligosaccharides Found in Human Milk” (Wyeth LLC, priority 2011, published 2012)

Tests used:
[1] = test system: Bifidobacterium Infantis ATCC 15697; assay: Growth of Bifidobacterium infantis in RCM without glucose, with or without test ingredient (optical density at 595 nm, 30 hours); assay type: cell-based; conditions: for growth in wells containing the test ingredient versus control medium: optical density 595 nm; for effect on the growth of Bifidobacterium infantis (summary statement): summary in the description
Protocol: (§1) Reinforced Clostridia Medium (RCM) was used for cultivating the bifidobacteria. RCM without glucose was used as a control medium. RCM is a well-known medium for cultivating and enumerating anaerobes, which was first formulated by Hirsch and Grinstead, J. Dairy Res., 21:101 (1954). The test ingredients were 2′-fucosyllactose, 6′-sialyllactose and 3′-sialyllactose dissolved in the control medium at the following concentrations: 1 mg/ml 2′-fucosyllactose; 1 mg/ml 6′-sialyllactose; and, 2 mg/ml 3′-sialyllactose. The bifidobacteria were separately grown overnight anaerobically in RCM, and were then measured and diluted to an optical density of 0.1 as measured by absorbance spectroscopy at 595 nm, and were then further diluted ten-fold to make a working stock. For each test, 50 μl of working stock was added to each well of a 96 well plate containing either 200 μl of control medium (48 wells) or 200 μl test ingredient solution (48 wells). The plate was grown anaerobically for 30 hours and optical density was read at abs 595 nm every 15 minutes. The values for like wells were averaged and plotted over time (FIGS. 1, 3, and 5-7), and the area under the curve (AUC) was calculated over the 30-hour period (FIGS. 2 and 4).

[2] = test system: Bifidobacterium Breve ATCC 15700; assay: Growth of Bifidobacterium breve in RCM without glucose, with or without test ingredient (optical density at 595 nm, 30 hours); assay type: cell-based
Protocol: as §1

Row | SMILES | growth in wells containing the test ingredient versus control medium ([1]; 2 mg/ml 3′-sialyllactose, after 8 hours, FIG. 7) | effect on the growth of Bifidobacterium infantis (summary statement) [1] | growth in wells containing the test ingredient versus control medium ([2]; 2 mg/ml 3′-sialyllactose, after 6 hours, optical density 595 nm, FIG. 6) | effect on the growth of Bifidobacterium breve (summary statement) ([2]; summary in the description) | growth in wells containing the test ingredient versus control medium ([1]; 1 mg/ml 6′-sialyllactose, after 12 hours, FIG. 5)
1 | CC(=O)N[C@H]1[C@H]([C@H](O)[C@H](O)CO)O[C@@](O[C@H]2[C@@H](O)[C@@H](CO)O[C@@H](O[C@H]3[C@H](O)[C@@H](O)C(O)O[C@@H]3CO)[C@@H]2O)(C(=O)O)C[C@@H]1O (stereo partly drawn) [3′-sialyllactose] | significantly greater | stimulates the growth | significantly greater | stimulates the growth | 
2 | CC(=O)N[C@H]1[C@H]([C@H](O)[C@H](O)CO)O[C@@](OC[C@H]2O[C@@H](O[C@H]3[C@H](O)[C@@H](O)[C@H](O)O[C@@H]3CO)[C@H](O)[C@@H](O)[C@H]2O)(C(=O)O)C[C@@H]1O [6′-sialyllactose] |  | stimulates the growth |  |  | significantly greater
